The values below are quoted from earlier work in patent US8076148B2, “Cytochrome c protein and assay” (GE Healthcare UK Limited, priority 2003, dated 2011).

Data set [1] has as its target T1, Apaf-1 (Homo sapiens, UniProt O14727).
T1 sequence (O14727 1-1248): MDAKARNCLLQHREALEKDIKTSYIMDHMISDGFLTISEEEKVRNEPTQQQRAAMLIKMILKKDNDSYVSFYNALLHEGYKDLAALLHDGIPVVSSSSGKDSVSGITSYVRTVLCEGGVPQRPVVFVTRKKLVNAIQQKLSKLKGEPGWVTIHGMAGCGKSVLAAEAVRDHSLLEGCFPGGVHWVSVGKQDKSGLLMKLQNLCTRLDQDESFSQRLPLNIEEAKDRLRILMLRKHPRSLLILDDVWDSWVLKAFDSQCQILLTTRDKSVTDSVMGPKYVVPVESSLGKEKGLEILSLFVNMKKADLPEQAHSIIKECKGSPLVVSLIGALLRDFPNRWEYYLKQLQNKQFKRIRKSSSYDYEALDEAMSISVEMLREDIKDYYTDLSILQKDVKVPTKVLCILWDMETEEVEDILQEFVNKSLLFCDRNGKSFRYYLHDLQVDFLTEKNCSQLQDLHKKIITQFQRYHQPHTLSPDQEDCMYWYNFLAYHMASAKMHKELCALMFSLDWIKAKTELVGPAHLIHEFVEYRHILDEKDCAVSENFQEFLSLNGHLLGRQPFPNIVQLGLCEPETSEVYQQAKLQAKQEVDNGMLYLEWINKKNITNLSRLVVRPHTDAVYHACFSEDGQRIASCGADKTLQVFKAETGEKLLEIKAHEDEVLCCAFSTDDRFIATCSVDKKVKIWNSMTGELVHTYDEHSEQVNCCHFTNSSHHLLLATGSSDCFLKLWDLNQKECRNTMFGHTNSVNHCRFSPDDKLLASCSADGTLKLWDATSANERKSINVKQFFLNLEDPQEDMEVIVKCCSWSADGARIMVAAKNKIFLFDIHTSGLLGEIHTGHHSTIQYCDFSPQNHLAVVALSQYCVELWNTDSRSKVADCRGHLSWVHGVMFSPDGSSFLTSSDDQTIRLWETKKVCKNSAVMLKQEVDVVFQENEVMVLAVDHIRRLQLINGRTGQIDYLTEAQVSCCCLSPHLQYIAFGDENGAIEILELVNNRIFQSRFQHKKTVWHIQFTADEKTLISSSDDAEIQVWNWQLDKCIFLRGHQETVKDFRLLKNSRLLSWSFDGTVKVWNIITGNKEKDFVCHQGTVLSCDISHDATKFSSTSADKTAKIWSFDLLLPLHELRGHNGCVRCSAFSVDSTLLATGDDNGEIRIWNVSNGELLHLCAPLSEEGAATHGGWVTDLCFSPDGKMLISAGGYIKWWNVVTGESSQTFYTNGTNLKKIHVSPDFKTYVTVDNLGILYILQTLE
The settings on record: in vitro.

For data set [2], the system named is caspase-9. The settings on record: in vitro.
Data set [3] concerns rat pheochromocytoma-6 (PC6) cells. The conditions noted are these: PC6 cells expressing rat cytochrome c-GFP.

For “yeast cytochrome c: yeast wild type cytochrome c”, the “binding to Apaf-1” value in data set [1] is on record as “did not measurably bind”. In data set [2], the caspase activation result was “nor activate caspase”. “Horse cytochrome c: horse wild type cytochrome c, highly homologous to human cytochrome c”: the caspase activation entry in data set [2] is given as “can initiate caspase activation”. `CN[C@@H]1C[C@H]2O[C@@](C)([C@@H]1OC)n1c3ccccc3c3c4c(c5c6ccccc6n2c5c31)C(=O)NC4` [staurosporine]: in data set [3], the “release of cytochrome c-GFP fusion from the mitochondria” value is given as “led to release of the fusion from the mitochondria”. Regarding “K72A: cytochrome c mutant, lysine 72 to alanine, from the literature in vitro studies (Kluck et al.; Yu et al.)”, the “binding to Apaf-1” value in data set [1] is given as “no detectable binding”. Further, in data set [2], the caspase activation result is on record as “no detectable binding or caspase-9 activation”.
